PMC12626088 (RSC Advances, 2025)
In brackets after ≈: the same amount, converted by molar mass.

Experiments:
α-glucosidase = α-glucosidase inhibition assay; assay type: biochemical; settings: sample described as 'SR (compound 4a) methanolic extract'
α-amylase = α-amylase inhibition assay; assay type: biochemical; settings: sample described as 'SR (compound 4a) methanolic extract'

In the case of `C(#CC(c1ccccc1)N1CCOCC1)c1ccccc1` (centres unmarked) [4a, 4-(1,3-diphenylprop-2-yn-1-yl)morpholine], the IC50 (α-glucosidase) is reported as 111.42 µg/mL (≈ 402 µM) and the IC50 (α-amylase) is reported as 112.98 µg/mL (≈ 407 µM).
